Source: patent US7767803B2, “Stabilized aptamers to PSMA and their use as prostate cancer therapeutics” (Archemix Corp., priority 2002, dated 2010)

Columns and labels:
[1] = system: metastatic, androgen independent prostate cancer; settings: docetaxel in combination with prednisone, given every three weeks; control mitoxantrone and prednisone; cited from earlier work
PSMA NAALADase activity = PSMA NAALADase activity (Homo sapiens, UniProt Q04609); assay: NAALADase inhibition assay; format: biochemical; settings: relative to parent aptamer
Procedure: These point mutant constructs were assessed for activity in terms of inhibition of PSMA NAALADase activity. The NAALADase assay was performed in 96 well format. PSMA aptamers were serially diluted in 1× reaction buffer (40 mM Tris-HCl, pH 7.4, 0.1 mM ZnSO4, 0.1 mg/mL BSA) in a standard 96 well plate to be tested at a final concentration range from 30 pM to 1 μM. The enzyme was prepared by diluting 30 μL of 100 nM PSMA into 8 mL of reaction buffer, and kept cool on ice. The substrate was prepared by adding 19 μl of NAAG [Glutamate-3,4-^3H], 50.8 Ci/mmol, 19.7 μM (Perkin-Elmer, Wellesley, Mass., NET1082) into 2.2 mL of reaction buffer.
Following preparation of all reagents, 4 μl of each serially diluted aptamer was added to a separate 96 well plate (the reaction plate). 76 μl of diluted enzyme was added to the corresponding wells containing aptamer. 80 μl of reaction buffer was added to one column of wells to serve as a background control. The diluted substrate and reaction plate were then moved to a room at 37° C. and allowed to equilibrate for 10 minutes. […]
To separate the cleavage products, […] and Glutamate, from the substrate, an AG 1-×8, 200-400 mesh, formate resin (BioRad, Hercules, Calif., # 140-1454) was used. […] The plate was sealed and read using a Packard Topcount Microplate Scintillation Counter. […]

LNCaP cells (PSMA+) = assay: LNCaP FACS assay with fluorescein-labeled aptamers; format: cell-based
Text: The parent A9 aptamer sequence (SEQ ID NO 168) is predicted by the MFOLD algorithm implemented in the RNAStructure program v. 4.11 to fold into a partially mismatched hairpin that encompasses almost the entire molecule. A series of truncated constructs were designed, in which self-pairing nucleotides from the 5′- and 3′-ends were simultaneously removed, chemically synthesized using conventional solid-phase phosphoramidite-based synthesis, and tested. In the design of some of the truncated A9 aptamers, see e.g. ARC591, additional bases were added to the 3′ and 5′ ends of the truncate, where the bases added to the 5′ end were capable of forming Watson-Crick base pairs with those added to the 3′ end thereby increasing the length of stem structure. Truncated aptamers were 5′-labeled with fluorescein and tested for binding in to LNCaP cells (PSMA+) in the FACS assay described below. PC-3 cells (PSMA−) were used as a control cell line. The sequences of the truncated A9 aptamers designed are listed below in Table 6 below.
To accomplish 5′-fluorescein labeling, aptamers were synthesized with a 5′-amine and then modified post-solid phase synthesis. The required aptamer was dissolved to a concentration of ˜10-50 mg/mL in 25 mM phosphate buffer, pH 7.4. The small molecule, NHS ester of fluorescein, was dissolved to a concentration of 10 mg/mL in DMSO. 1.5 Molar equivalents were added to the aptamer and the solution vortexed for ˜15 seconds. The reaction was allowed to proceed in the dark at room temperature for 1 hour and then a 5 μL aliquot was withdrawn, diluted with water and analyzed by HPLC. Additional equivalents of the small molecule were added until the reaction was complete by HPLC. Excess small molecules were removed by gel filtration.
To prepare aptamers for the FACS assay, PSMA aptamers were serially diluted (0-1 uM) in FACS buffer (1×DPBS w/Ca^++/Mg^++ (Gibco, Carlsbad, Calif.) supplemented with 10 mg/mL salmon sperm DNA & 0.2% Na Azide), in a V-bottom 96 well plate, at the concentrations to be tested. LNCaP and PC-3 cells (ATCC, Manassas, Va.) were harvested with trypsin, and 200,000 cells/well were counted, washed once with 1×DPBS (with Ca^++ and Mg^++) and resuspended in 200 μl of FACS Buffer. The 200 μl of cells in FACS buffer were added to individual wells of a new 96 well plate, pelleted by centrifugation (1300 rpm for 5 minutes), and resuspended in 100 μl of the appropriate concentration of diluted aptamer. FACS buffer, c-PSMA antibody (3C6) (Northwest Biotherapeutics, Bothell, Wash., Cat #: 60-5002) and an irrelevant fluorescein isothiocyanate (“FITC”) mouse IgG1 isotype control antibody (BD Pharmingen, San Diego, Calif., Cat#: 554679) were used as controls. The wells of aptamer/cell mixture were incubated at room temperature for 20-30 minutes. […]

PC-3 cells (PSMA−) = assay: FACS assay on control cell line; format: cell-based
Text: The parent A9 aptamer sequence (SEQ ID NO 168) is predicted by the MFOLD algorithm implemented in the RNAStructure program v. 4.11 to fold into a partially mismatched hairpin that encompasses almost the entire molecule. A series of truncated constructs were designed, in which self-pairing nucleotides from the 5′- and 3′-ends were simultaneously removed, chemically synthesized using conventional solid-phase phosphoramidite-based synthesis, and tested. […]
To prepare aptamers for the FACS assay, PSMA aptamers were serially diluted (0-1 uM) in FACS buffer (1×DPBS w/Ca^++/Mg^++ (Gibco, Carlsbad, Calif.) supplemented with 10 mg/mL salmon sperm DNA & 0.2% Na Azide), in a V-bottom 96 well plate, at the concentrations to be tested. LNCaP and PC-3 cells (ATCC, Manassas, Va.) were harvested with trypsin, and 200,000 cells/well were counted, washed once with 1×DPBS (with Ca^++ and Mg^++) and resuspended in 200 μl of FACS Buffer. […]
Cell samples were analyzed on a FACS Scan machine (Becton Dickinson, San Jose, Calif.) under the following parameters: FSC/SSC, FL-1/FSC, FL-3/FSC. The unstained and/or isotype controls were used to establish gating parameters, and the data was analyzed using Cell Quest Pro software version 5.1.1 (Becton Dickinson Immunocytometry Systems, San Jose, Calif.).

PSMA NAALADase activity, sequence (Q04609 with tags, fused parts or gaps limits assumed): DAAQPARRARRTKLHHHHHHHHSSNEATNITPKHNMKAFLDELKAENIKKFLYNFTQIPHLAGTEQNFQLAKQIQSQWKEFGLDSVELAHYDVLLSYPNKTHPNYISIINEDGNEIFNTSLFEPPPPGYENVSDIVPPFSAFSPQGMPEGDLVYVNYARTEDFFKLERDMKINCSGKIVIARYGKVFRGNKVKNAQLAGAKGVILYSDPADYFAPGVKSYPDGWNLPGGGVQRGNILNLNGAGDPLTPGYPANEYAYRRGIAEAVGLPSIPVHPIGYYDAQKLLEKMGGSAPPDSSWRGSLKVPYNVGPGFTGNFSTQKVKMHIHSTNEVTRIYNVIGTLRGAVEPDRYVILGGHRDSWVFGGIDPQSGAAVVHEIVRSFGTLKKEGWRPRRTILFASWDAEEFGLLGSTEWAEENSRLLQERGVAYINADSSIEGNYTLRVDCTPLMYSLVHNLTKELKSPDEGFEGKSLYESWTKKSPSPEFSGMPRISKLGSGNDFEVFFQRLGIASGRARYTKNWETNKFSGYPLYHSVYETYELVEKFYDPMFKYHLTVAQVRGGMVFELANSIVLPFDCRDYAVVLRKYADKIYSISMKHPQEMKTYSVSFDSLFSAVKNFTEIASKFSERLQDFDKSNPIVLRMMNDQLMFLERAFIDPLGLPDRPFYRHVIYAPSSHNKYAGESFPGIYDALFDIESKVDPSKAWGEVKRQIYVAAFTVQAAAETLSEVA

Molecule | survival advantage over the control group [1] | NAALADase inhibition activity (in words) (PSMA NAALADase activity) | binding to LNCaP (PSMA+) cells by FACS (in words) (LNCaP cells (PSMA+)) | binding to PC-3 (PSMA−) cells by FACS (in words) (PC-3 cells (PSMA−))
CC(=O)O[C@@]12CO[C@@H]1C[C@H](O)[C@@]1(C)C(=O)[C@H](O)C3=C(C)[C@@H](OC(=O)[C@H](O)[C@@H](NC(=O)OC(C)(C)C)c4ccccc4)C[C@@](O)([C@@H](OC(=O)c4ccccc4)[C@H]21)C3(C)C [Taxotere, docetaxel] | approximately 2.5 months | – | – | –
GGAGGACCGAAAAAGACCUGACUUCUAUACUAAGUCUACGUUCCUCCA (2'-fluoro pyrimidines, further chemistry not given here) [ARC591, 48-nt minimer of A9, 2′-OH purines, 2′-fluoro pyrimidines] | – | retained full functional activity | retained full functional activity | –
GGGAGGACGAUGCGGACCGAAAAAGACCUGAfCfUfUfCfUAfUAfCfUAAGfUfCfUAf CGfUfUfCfCfCAGAfCGAfCfUfCGfCfCfCGA (nucleic acid, listed as RNA, chemistry not fully specified, existing PSMA specific aptamer of rRfY composition, described in U.S. Ser. No. 09/978,969) GGGAGGACGAUGCGGACCGAAAAAGACCUGACUUCUAUACUAAGUCUACGUUCCCAGACGACUCGCCCGA | – | – | binding to LNCaP (PSMA+) cells | not to PC-3 (PSMA−) cells
